Experimental data published in PMC7893915, “Assessing cross-resistance within the pyrethroids in terms of their interactions with key cytochrome P450 enzymes and resistance in vector populations” (Parasites & Vectors, 2021).
Like-named read-outs stand apart in the source and are kept apart here.

Legend:
Anopheles arabiensis = conditions: F0, larval collection, Sudan, WHO Bioassay 1998, ref Abdalla H et al. Parasites Vectors. 2014;7:213, cited from earlier work
Gambiae Complex = conditions: ID 100156; F0, larval collection, 5/2009-4/2010, Chano, Ethiopia; WHO Bioassay 1998; ref Massebo F et al. Parasites Vectors. 2013;6; cited from earlier work
CYP6P2 = conditions: read-out: IC50 CYP6P2; inhibition of diethoxyfluorescein metabolism; footnote b; ref Yunta et al. 2019[10]; cited from earlier work
CYP6P3 [1] = conditions: read-out: IC50 CYP6P3; inhibition of diethoxyfluorescein metabolism; footnote b; ref Yunta et al. 2019[10]; cited from earlier work
CYP6Z2 = target: T1, CYP6Z2 (Anopheles gambiae, UniProt Q7PNB5); experiment: Inhibition screening of pyrethroids, diethoxyfluorescein, CYP6Z2; format: biochemical
T1 sequence (Q7PNB5 1-492): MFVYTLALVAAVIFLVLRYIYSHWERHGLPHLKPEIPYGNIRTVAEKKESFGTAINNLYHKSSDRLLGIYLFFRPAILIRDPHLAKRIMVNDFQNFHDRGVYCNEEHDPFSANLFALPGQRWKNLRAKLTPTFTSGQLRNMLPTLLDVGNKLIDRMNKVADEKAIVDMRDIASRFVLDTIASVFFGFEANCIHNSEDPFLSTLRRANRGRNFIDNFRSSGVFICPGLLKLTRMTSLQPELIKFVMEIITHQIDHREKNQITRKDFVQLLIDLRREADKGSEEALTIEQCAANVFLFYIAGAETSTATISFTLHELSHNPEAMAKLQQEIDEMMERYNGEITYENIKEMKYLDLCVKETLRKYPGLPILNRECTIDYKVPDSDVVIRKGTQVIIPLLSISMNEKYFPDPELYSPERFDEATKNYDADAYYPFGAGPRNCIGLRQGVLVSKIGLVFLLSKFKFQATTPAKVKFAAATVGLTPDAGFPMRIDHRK
T1 sequence (Q86QH5 1-679 partner): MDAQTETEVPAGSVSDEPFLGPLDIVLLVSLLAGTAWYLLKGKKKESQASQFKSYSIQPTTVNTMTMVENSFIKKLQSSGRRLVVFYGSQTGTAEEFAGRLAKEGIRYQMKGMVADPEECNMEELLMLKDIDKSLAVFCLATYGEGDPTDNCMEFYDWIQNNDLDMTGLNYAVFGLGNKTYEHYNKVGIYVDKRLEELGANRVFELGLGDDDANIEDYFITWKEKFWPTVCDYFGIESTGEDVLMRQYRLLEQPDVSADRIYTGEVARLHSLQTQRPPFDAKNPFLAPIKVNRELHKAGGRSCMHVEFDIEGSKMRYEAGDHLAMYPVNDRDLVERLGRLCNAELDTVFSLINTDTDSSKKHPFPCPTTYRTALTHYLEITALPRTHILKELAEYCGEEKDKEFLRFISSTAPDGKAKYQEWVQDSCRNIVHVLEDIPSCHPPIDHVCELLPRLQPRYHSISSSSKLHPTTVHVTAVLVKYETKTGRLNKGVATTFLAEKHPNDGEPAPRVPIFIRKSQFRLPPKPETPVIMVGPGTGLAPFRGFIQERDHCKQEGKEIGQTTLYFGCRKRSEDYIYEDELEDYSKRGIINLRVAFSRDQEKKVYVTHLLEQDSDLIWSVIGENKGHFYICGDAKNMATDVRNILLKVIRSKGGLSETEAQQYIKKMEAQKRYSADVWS

[2] = tested on: P450 panel (CYP6M2, CYP6P3, CYP6P9a, CYP6P2, CYP9J5, CYP6Z3, CYP6Z2); experiment: P450 inhibition, whole P450 panel (mean across P450s); format: biochemical, Anopheles gambiae and An. funestus; conditions: Anopheles gambiae and Anopheles funestus
Excerpt: (§1) Cytochrome P450 inhibition assays using fluorogenic probe substrates have become commonplace in drug discovery screening cascades and are a rapid method of screening for insecticide interactions with mosquito P450s to predict insecticide binding, metabolism, cross-resistance and synergism. In this study, the half maximal inhibitory concentration (IC50), which provides a value for inhibition of each P450 by each pyrethroid (also referred to as ‘binding affinity’), and the percentage depletion, which gives a value for metabolism of each pyrethroid by each P450 (also referred to as vulnerability to metabolic attack), were both included as parameters to establish a P450s structural activity relationship model. This model was used to understand both the chemistry of the pyrethroids and the interaction with mosquito P450s that function as monooxygenases in metabolic resistance, to predict cross-resistance liabilities in vivo. […] A low percentage depletion indicates low metabolism of the pyrethroid, which means that it may be less vulnerable to resistance mediated by P450s.
(§2) In addition, inhibition activity data for these pyrethroids exposed to CYP6Z3 from the An. gambiae Kisumu strain were also generated (Additional file 1).

CYP6P9a [3] = conditions: read-out: IC50 CYP6P9a; inhibition of diethoxyfluorescein metabolism; footnote b; ref Yunta et al. 2019[10]; cited from earlier work
CYP9J5 = conditions: read-out: IC50 CYP9J5; inhibition of diethoxyfluorescein metabolism; footnote b; ref Yunta et al. 2019[10]; cited from earlier work
CYP6Z3 = target: T2, CYP6Z3 (Anopheles gambiae, UniProt Q86LT6, H411Y/S209G/W396L); experiment: Inhibition screening of pyrethroids, diethoxyfluorescein, CYP6Z3; format: biochemical
T2 sequence (Q86LT6 1-492 S209G/W396L/H411Y): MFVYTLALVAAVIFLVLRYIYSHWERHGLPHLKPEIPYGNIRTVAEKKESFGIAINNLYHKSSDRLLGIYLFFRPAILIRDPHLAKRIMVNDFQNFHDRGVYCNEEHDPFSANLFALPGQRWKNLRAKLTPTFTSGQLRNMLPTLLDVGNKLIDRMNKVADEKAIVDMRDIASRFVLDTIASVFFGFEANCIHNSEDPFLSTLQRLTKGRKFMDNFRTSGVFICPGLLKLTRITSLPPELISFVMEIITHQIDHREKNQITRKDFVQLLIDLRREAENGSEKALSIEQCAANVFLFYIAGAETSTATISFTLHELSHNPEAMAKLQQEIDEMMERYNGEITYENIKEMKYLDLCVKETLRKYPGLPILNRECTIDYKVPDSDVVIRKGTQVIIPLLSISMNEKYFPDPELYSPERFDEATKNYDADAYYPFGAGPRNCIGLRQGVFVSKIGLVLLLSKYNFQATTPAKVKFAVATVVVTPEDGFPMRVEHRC
T2 sequence (Q86QH5 1-679 partner): T1 sequence (Q86QH5 1-679 partner)
Excerpt: as §1, §2
1. Preparation of An. gambiae CYP6Z3 and cloning
Total RNA was extracted with Arcturus PicoPure Kit (Applied Biosystems, USA) from ten adult An. gambiae mosquitoes from the Kisumu strain [1]. Complementary DNA was prepared using Superscript III (Invitrogen) with an oligo (dT)20 primer and used as a template for amplifying full -length AgCyp6z3 with KOD DNA polymerase (Merk Chemicals) . The gene-specific primers used in these high -fidelity PCRs (Table S1) were designed according to the reference An. gambiae PEST CYP6Z3 genome sequence (Accession number AY193727) The PCR product was ligated into pGEM T-easy vector (Promega) and sequenced on both strands. Consistent with the high frequency of polymorphism in An. gambiae P450s [2](Martin Nature Ref) there were 36 single nucleotide polymorphism (SNPs) compared with the reference sequence, of which three produced amino acid changes, S209G, W396L, and H411Y. For expression, the ompA leader sequence (ompA) was engineered onto the amino - terminus of the AgCyp6z3 gene to direct the P450 into the E. coli […] during expression as previously described. The ompA-leader was fused to AgCyp6z3 cDNA in frame with AgCyp6z3 initiation codon by fusion PCR using High fidelity Phusion polymerase (Scientific). The ompA AgCyp6z3 fusion was flanked at the 5′ and 3′ ends with NdeI and EcoR1, respectively for ligation into NdeI/EcoRI linearised pB13 (pCWori+).
Table S1. Primers used for amplification of CYP6Z3 and in vitro functional characterisation […]
ompA+2 Forward […]
ompA+2 CYP6Z3 fusion […]
2. Preparation of membranes expressing P450 and AgCPR
To express functional P450, AgCyp6z3 cloned into pB13 plasmid was co-transformed into E. coli JM109 cells with An. gambiae NADPH-cytochrome P450 reductase (AgCPR-pACYC). The P450 and the AgCPR were previously fused with ompA and pelB leader sequences respectively to direct the expressed proteins to the inner bacterial periplasm in order to form functional monooxygenase complex. For P450 production, 200 mL E. coli cultures in Terrific Broth were incubated at 21°C with shaking at 120 RPM for 18–24 h after induction with 1 mM IPTG. Following expression, E. coli membranes containing CYP6Z3 were isolated and P450 and AgCPR content measured as previously described. Samples were stored in aliquots of 100 µL at −80°C. An. gambiae cytochrome b5 was prepared as described previously to supplement enzyme reactions at an 8:1 M ratio, b5: P450 [4].
3. Inhibition screening of pyrethroids.
Inhibition screening of pyrethroid inhibitors and IC50 calculations carried out according Yunta et al. […]

[4] = tested on: An. funestus strain, FUMOZ-R; parameters: method as in PMID 26930058; conditions: strain with upregulated P450 levels without any target-site mutations; ref [47]; cited from earlier work
CYP6M2 = conditions: Incubation time 2h; mean ± SD; ref [38], [41]; cited from earlier work
[5] = tested on: CYP6M2, CYP6P3 and CYP6P9a; experiment: Pyrethroid metabolism (insecticide depletion), across CYP6M2, CYP6P3 and CYP6P9a; format: in vitro ADME, Anopheles gambiae and An. funestus; conditions: mean ± SD across CYP6M2, CYP6P3, CYP6P9a
Excerpt: as §1, with “In” for “Cytochrome P450 inhibition assays using fluorogenic probe substrates have become commonplace in drug discovery screening cascades and are a rapid method of screening for insecticide interactions with mosquito P450s to predict insecticide binding, metabolism, cross-resistance and synergism. In”
The values for percentage depletion (metabolism) of each pyrethroid by three of the enzymes CYP6M2, CYP6P3 and CYP6P9a, which were expressed in a single plasmid construct, were also extracted from the same sources and used for the comparative analysis.

CYP6P3 [6] = conditions: Incubation time 2h; mean ± SD; ref [38], [41]; cited from earlier work
CYP6P9a [7] = conditions: Incubation time 2h; mean ± SD; ref [38], [41]; cited from earlier work

Row | Structure (SMILES) | mortality (Anopheles arabiensis; 10/2009-11/2009, El Managil) | mortality (Anopheles arabiensis; 10/2009-11/2009, Rufaa) | mortality (Anopheles arabiensis; 10/2009-11/2009, Wad El Hadad) | mortality (Anopheles arabiensis; 10/2010-11/2010, Wad El Hadad) | mortality (Anopheles arabiensis; 10/2010-11/2010, Wad Medani) | effectiveness with or without piperonyl butoxide (PBO), in words [4] | other results
1 | Clc1ccc(C(c2ccc(Cl)cc2)C(Cl)(Cl)Cl)cc1 [DDT, dichlorodiphenyltrichloroethane] | 93 | 58 | 74 | 69 | 70 | – | –
2 | COP(=S)(OC)Oc1ccc([N+](=O)[O-])c(C)c1 [feni, fenitrothion] | 100 | 100 | 100 | 100 | 100 | – | –
3 | CC1(C)C(C=C(Cl)Cl)C1C(=O)OC(C#N)c1cccc(Oc2ccccc2)c1 (stereo not drawn) [⍺-cypermethrin, α-cypermethrin] | – | – | – | – | – | – | mortality (Gambiae Complex): 50; IC50 (CYP6P2): 9.8 µM; IC50 (CYP6P3 [1]): 2600 nM; IC50 (CYP6Z2): 8.6 µM; IC50 [2]: 6.4 µM; IC50 (CYP6P9a [3]): 4.2 µM; IC50 (CYP9J5): 13.5 µM; IC50 (CYP6Z3): 4.4 µM
4 | CC1(C)C(C=C(Cl)Cl)C1C(=O)OC(C#N)c1ccc(F)c(Oc2ccccc2)c1 (centres unmarked) [ß-cyfluthrin] | – | – | – | – | – | only effective when partnered with PBO | –
5 | CNC(=O)Oc1cccc2c1OC(C)(C)O2 [bend, bendiocarb] | 100 | 100 | 100 | 100 | 100 | – | –
6 | CC1(C)C(C=C(Cl)Cl)C1C(=O)OC(C#N)c1cccc(Oc2ccccc2)c1 (centres unmarked) [Cypermethrin] | – | – | – | – | – | only effective when partnered with PBO | % Insecticide depletion CYP6M2 (CYP6M2): 36.8 ± 1.8%; % Insecticide depletion Mean across P450s [5]: 74.9 ± 33.3%; % Insecticide depletion CYP6P3 (CYP6P3 [6]): 98.4 ± 0.1%; % Insecticide depletion CYP6P9a (CYP6P9a [7]): 89.5 ± 2.7%
